US5491229A, “Rapamycin derivative” (SmithKline Beecham PLC, priority 1991, dated 1996)

Experiments:
Saccharomyces cerevisiae = experiment: Assay for Antifungal Activity (yeast agar well zone of inhibition); format: cell-based; conditions: 48 hours
Protocol: Yeast organisms (Saccharomyces cerevisiae) in logarithmic growth were plated on complete agar medium (YPD). The compound was dissolved in an appropriate aqueous or organic solvent and placed in wells punched in the agar. Plates were incubated for 48 hours and zones of inhibition were measured.
IC12^(nM) refers to the concentration of drug in the antifungal assay which produces a 12 mm zone of inhibition.

[1] = system: Spleen cells from BDF1 female mice; experiment: Mitogenesis Assay for Immunosuppressive Activity (concanavalin A-stimulated spleen cells, 3H-thymidine); format: cell-based; conditions: Concanavalin A (5 μg/ml), 72 hours
Protocol: Spleen cells from BDF1 female mice were established in RPMI with 10% fetal calf serum at 5×10^6 /ml. One hundred […] aliquots of this suspension (5×10^5 cells) were dispensed into 96-well round-bottomed microtiter plates (Linbro, Flow Laboratories). Concanavalin A (5 μg/ml) was added as the mitogenic stimulus, and the final volume in the microtiter wells was adjusted to 200 μL with RPMI. Cell cultures were incubated for 72 hours at 37 degrees C. in a 5% CO2 atmosphere and pulsed with 0.5μ Ci ^3 H-thymidine (specific activity […]) for the last 18 hour culture. The cells were harvested on an automated multiple sample harvester and cell-associated radioactivity counted in a Beckman liquid scintillation counter. The results are expressed as the mean values derived from quadruplicate measurements. Cell viability was determined by trypan blue exclusion after 72 hours of incubation. Compounds to be tested were added to the microtiter plates at the appropriate dilutions prior to the addition of cells.

IC50 ([1]; Mus musculus, 37 degrees C., 3H-thymidine): 15 nM
Compound: CO[C@H]1C[C@@H]2CC[C@@H](C)C(O)(CC(=O)N3CCCC[C@H]3C(=O)O[C@H]([C@H](C)C[C@@H]3CC[C@@H](O)[C@H](OC)C3)CC(=O)[C@H](C)/C=C(\C)[C@@H](O)[C@@H](OC)C(=O)[C@H](C)C[C@H](C)/C=C/C=C/C=C/1C)O2 [14-methylene rapamycin]
IC (12 mm zone of inhibition) (Saccharomyces cerevisiae; Saccharomyces cerevisiae on YPD agar, read-out: Yeast IC12 (concentration of drug in the antifungal assay which produces a 12 mm zone of inhibition)): 0.013 µM
antifungal activity (in words) (Saccharomyces cerevisiae; Saccharomyces cerevisiae): has both antifungal and immunomodulatory activity
immunosuppressive / immunomodulatory activity (in words) [1]: has both antifungal and immunomodulatory activity
